Results taken from article PMC12735872, “Development of ^18F/^11C-Labeled Pyrrolo-Pyridine/Pyrimidine LRRK2 Selective PET Radioligands” (Pharmaceuticals, 2025).
Like-named read-outs stand apart in the source and are kept apart here.

Assay: Plasma protein binding by ultrafiltration
Format: in vitro ADME, non-human primate (NHP)
Conditions: cynomolgus monkey, pH 7.4, NHP plasma, baseline
Procedure: The plasma protein binding of all three radioligands was determined in duplicate at the baseline condition according to a previously published method. For each blood plasma sample, 500 μL of non-human primate (NHP) blood plasma was used with 50 μL PBS (pH 7.4 containing KCl 0.2 mg, KH2PO4 0.2 mg, Na2HPO4 1.42 mg, and NaCl 8 mg per mL). The mixture included around 20 MBq of the corresponding radioligand in PBS. Samples underwent incubation at room temperature for 10 min. A small aliquot (20 µL) was taken from each mixture, and radioactivity measurements were performed using a well counter. From each mixture, 200 µL was placed into ultrafiltration tubes (Millipore Centrifree YM-30) and centrifuged at 3000 rpm for 15 minutes. The remaining filtrates were analyzed and aliquots (20 µL) were counted in the well counter described earlier. Protein-bound fractions were calculated as follows:(1) C⥂pla (filtrate) /Cpla (total) ÷CPBS (filtrate) /CPBS (total) ×100(%)
Cpla (total) represents the radioactivity concentration of incubation mixture in plasma and CPBS (total) represents the radioactivity concentration of incubation mixture in PBS. Cpla (filtrate) and CPBS (filtrate) are the radioactivity concentrations from filtrate samples.

[1] = read-out: Free fraction in plasma (fP)
[2] = read-out: Plasma protein binding (converted)

Row | Compound | fraction unbound at 10 min [1] | fraction unbound at 10 min [2]
1 | C[C@@H]1C[C@@H]([18F])CN1c1c(C#N)c2c(N)nccc2n1C [[^18F]1, 4-Amino-2-((2R,4R)-4-[^18F]fluoro-2-methylpyrrolidin-1-yl)-1-methyl-1H-pyrrolo[3,2-c]pyridine-3-carbonitrile] | ~0.45 | ~0.45
2 | C[C@@H]1C[C@@H]([18F])CN1c1c(C#N)c2c(N)ncnc2n1C [[^18F]2, 4-Amino-6-((2R,4R)-4-[^18F]fluoro-2-methyl Pyrrolidin-1-yl)-7-methyl-7H-pyrrolo[2,3-d]pyrimidine-5-carbonitrile] | ~0.6 | ~0.6
